Results reported in patent US5696151A, “Compounds useful for the inhibition of the replication of HIV-1 and HIV-1 mutants” (priority 1995, dated 1997).
≈ marks a conversion by molar mass, not a printed value.

Tests used:
Type in all cases: cell-based
[1] = tested on: HIV-1/100-Ile; assay: Inhibition of HIV-1 induced syncytium formation in CEM cells, RT mutant 100-Ile; details: Human immunodeficiency virus 1, CCRF-CEM, 96 h, Table 2B, day 4, averages of 2 to 3 independent experiments, read-out: Antiviral Activity of Comparative Compounds EC50, 100-Ile
Description: (§1) CEM cells were obtained from the American Tissue Cell Culture Collection (Rockville, Md.). HIV-1(IIIB) was originally obtained from the culture supernatant of persistently HIV-1-infected H9 cells and was provided by R. C. Gallo and M. Popovic (National Cancer Institute, National Institutes of Health, Bethesda, Md.). […] 67: 5353-5359 (1993); HIV-1/Lys-138 ("Lys-138") was selected for resistance against TSAO-m^3T as described in Balzarini et al, Virology 192: 246-253 (1993) and Balzarini et al, Proc. Nat. Acad. Sci. USA 90: 6952-6956 (1993); HIV-1/181-Cys ("181-Cys") was selected for resistance against pyridinone L-697,661 as described in Balzarini et al, Virology 192: 246-253 (1993); and HIV-1/188-His ("188-His") was selected for resistance against HEPT as described in Balzarini et al, Mol. Pharmocol. 44: 694-701 (1993). 188-His was then further converted to HIV-1/188-Leu "188-Leu") upon further passage in cell culture in the absence of the HEPT.
(§2) CEM cells were suspended at ≈300,000 cells per ml of culture medium and infected with approximately 100 CCID50 (CCID50 being the 50% cell culture infective dose) of HIV-1(IIIB) or one of the HIV-1 RT mutant strains described above. Then 100 μl of the infected cell suspensions was added to 200 μl microtiter plate wells containing 100 μl of appropriate serial (5-fold) dilutions of the test compounds. The inhibitory effect of the test compounds on HIV-1 induced syncytium formation in CEM cells was examined microscopically on day 4 post infection.

[2] = tested on: HIV-1/Lys-138; assay: Inhibition of HIV-1 induced syncytium formation in CEM cells, RT mutant 138-Lys; details: Human immunodeficiency virus 1, CCRF-CEM, 96 h, Table 2B, day 4, averages of 2 to 3 independent experiments, read-out: Antiviral Activity of Comparative Compounds EC50, 138-Lys
Description: as §1, §2

[3] = in vitro; details: human, cem cells, CC50 (50% cytostatic concentration), Table 2B; CEM cell proliferation; averages of 2 to 3 independent experiments
Description: as §1
^b 50% cytostatic concentration (i.e., compound concentration require
to inhibit CEM cell proliferation by 50%)

[4] = tested on: HIV-1(IIIB); assay: Inhibition of HIV-1 induced syncytium formation in CEM cells, wild type; details: Human immunodeficiency virus 1, IIIB, CCRF-CEM, 96 h, Table 2B, WT = HIV-1(IIIB), day 4, averages of 2 to 3 independent experiments, read-out: Antiviral Activity of Comparative Compounds EC50, WT
Description: as §1, §2

[5] = tested on: HIV-1/181-Cys; assay: Inhibition of HIV-1 induced syncytium formation in CEM cells, RT mutant 181-Cys; details: Human immunodeficiency virus 1, CCRF-CEM, 96 h, Table 2B, day 4, averages of 2 to 3 independent experiments, read-out: Antiviral Activity of Comparative Compounds EC50, 181-Cys
Description: as §1, §2

[6] = tested on: HIV-1/106-Ala; assay: Inhibition of HIV-1 induced syncytium formation in CEM cells, RT mutant 106-Ala; details: Human immunodeficiency virus 1, CCRF-CEM, 96 h, Table 2B, day 4, averages of 2 to 3 independent experiments, read-out: Antiviral Activity of Comparative Compounds EC50, 106-Ala
Description: as §1, §2

Structure (SMILES) | EC50 [1] | EC50 [2] | CC50 [3] | EC50 [4] | EC50 [5] | EC50 [6]
Cc1occc1C(=O)Nc1ccc(Cl)c(C(=O)OC(C)C)c1 [Compound 48] | 6.5 µg/mL (≈ 20.2 µM) | 3.5 µg/mL (≈ 10.9 µM) | 3.8 µg/mL (≈ 11.8 µM) | 0.45 µg/mL (≈ 1.4 µM) | 6 µg/mL (≈ 18.6 µM) | 6.5 µg/mL (≈ 20.2 µM)
Cc1occc1C(=S)Nc1ccc(Cl)c(C(=O)OC(C)C)c1 [Compound 49] | 0.6 µg/mL (≈ 1.78 µM) | 0.6 µg/mL (≈ 1.78 µM) | 5.2 µg/mL (≈ 15.4 µM) | 0.007 µg/mL (≈ 0.0207 µM) | 0.2 µg/mL (≈ 0.592 µM) | 0.6 µg/mL (≈ 1.78 µM)
C=C(C)COC(=O)c1cc(NC(=O)c2ccoc2C)ccc1Cl [Compound 50] | 5 µg/mL (≈ 15 µM) | 1 µg/mL (≈ 3 µM) | 3.7 µg/mL (≈ 11.1 µM) | 0.15 µg/mL (≈ 0.449 µM) | 1.9 µg/mL (≈ 5.69 µM) | 1 µg/mL (≈ 3 µM)
C=C(C)COC(=O)c1cc(NC(=S)c2ccoc2C)ccc1Cl [Compound 51] | 0.8 µg/mL (≈ 2.29 µM) | 0.03 µg/mL (≈ 0.0858 µM) | 6.7 µg/mL (≈ 19.2 µM) | 0.006 µg/mL (≈ 0.0172 µM) | 0.1 µg/mL (≈ 0.286 µM) | 0.03 µg/mL (≈ 0.0858 µM)
Cc1occc1C(=O)Nc1ccc(Cl)c(COC(C)(C)C)c1 [Compound 52] | 8.5 µg/mL (≈ 26.4 µM) | 4 µg/mL (≈ 12.4 µM) | 6.2 µg/mL (≈ 19.3 µM) | 0.7 µg/mL (≈ 2.18 µM) | ≥ 10 µg/mL | 5.5 µg/mL (≈ 17.1 µM)
Cc1occc1C(=S)Nc1ccc(Cl)c(COC(C)(C)C)c1 [Compound 53] | 0.85 µg/mL (≈ 2.52 µM) | 0.08 µg/mL (≈ 0.237 µM) | 18 µg/mL (≈ 53.3 µM) | 0.03 µg/mL (≈ 0.0888 µM) | 0.55 µg/mL (≈ 1.63 µM) | 0.29 µg/mL (≈ 0.858 µM)
Cc1occc1C(=O)Nc1ccc(Cl)c(C(=O)OC(C)C2CC2)c1 (stereo not drawn) [Compound 54] | > 10 µg/mL | > 10 µg/mL | 44 µg/mL (≈ 127 µM) | 0.6 µg/mL (≈ 1.73 µM) | 1 µg/mL (≈ 2.88 µM) | 5 µg/mL (≈ 14.4 µM)
Cc1occc1C(=S)Nc1ccc(Cl)c(C(=O)OC(C)C2CC2)c1 (stereo not drawn) [Compound 55] | 0.65 µg/mL (≈ 1.79 µM) | 0.18 µg/mL (≈ 0.495 µM) | 17 µg/mL (≈ 46.7 µM) | 0.009 µg/mL (≈ 0.0247 µM) | 0.11 µg/mL (≈ 0.302 µM) | 0.08 µg/mL (≈ 0.22 µM)
COc1ccc(NC(=O)c2ccoc2C)cc1CC(=O)OC(C)C [Compound 56] | > 10 µg/mL | ≥ 10 µg/mL | 52 µg/mL (≈ 157 µM) | 0.7 µg/mL (≈ 2.11 µM) | > 10 µg/mL | 6.5 µg/mL (≈ 19.6 µM)
COc1ccc(NC(=S)c2ccoc2C)cc1CC(=O)OC(C)C [Compound 57] | 1.3 µg/mL (≈ 3.74 µM) | 0.08 µg/mL (≈ 0.23 µM) | > 100 µg/mL | 0.009 µg/mL (≈ 0.0259 µM) | 0.5 µg/mL (≈ 1.44 µM) | 0.2 µg/mL (≈ 0.576 µM)
Cc1sccc1C(=O)Nc1ccc(Cl)c(C=NOC(C)(C)C)c1 [Compound 60] | 4.5 µg/mL (≈ 12.8 µM) | 1.57 µg/mL (≈ 4.47 µM) | 14 µg/mL (≈ 39.9 µM) | 0.23 µg/mL (≈ 0.656 µM) | 3 µg/mL (≈ 8.55 µM) | 1.6 µg/mL (≈ 4.56 µM)
Cc1sccc1C(=S)Nc1ccc(Cl)c(C=NOC(C)(C)C)c1 [Compound 61] | 0.2 µg/mL (≈ 0.545 µM) | 0.05 µg/mL (≈ 0.136 µM) | 12 µg/mL (≈ 32.7 µM) | 0.01 µg/mL (≈ 0.0273 µM) | 0.2 µg/mL (≈ 0.545 µM) | 0.2 µg/mL (≈ 0.545 µM)
CC(C)OC(=O)c1cc(NC(=O)c2ccccc2)ccc1Cl [Compound 62] | 3.5 µg/mL (≈ 11 µM) | 5 µg/mL (≈ 15.7 µM) | 6.2 µg/mL (≈ 19.5 µM) | 0.4 µg/mL (≈ 1.26 µM) | 5.5 µg/mL (≈ 17.3 µM) | 5 µg/mL (≈ 15.7 µM)
CC(C)OC(=O)c1cc(NC(=S)c2ccccc2)ccc1Cl [Compound 63] | 4.5 µg/mL (≈ 13.5 µM) | 2.2 µg/mL (≈ 6.59 µM) | 4.3 µg/mL (≈ 12.9 µM) | 0.05 µg/mL (≈ 0.15 µM) | 5 µg/mL (≈ 15 µM) | 5 µg/mL (≈ 15 µM)
O=C(OC1CCCCC1)c1cc(NC(=S)c2ccccc2F)ccc1Cl [Compound 65] | 0.3 µg/mL (≈ 0.766 µM) | 0.09 µg/mL (≈ 0.23 µM) | 19 µg/mL (≈ 48.5 µM) | 0.04 µg/mL (≈ 0.102 µM) | 0.25 µg/mL (≈ 0.638 µM) | 0.26 µg/mL (≈ 0.663 µM)
CCC(CC)OC(=O)c1cc(NC(=O)c2ccccc2N)ccc1Cl [Compound 66] | > 10 µg/mL | > 10 µg/mL | 25 µg/mL (≈ 69.3 µM) | 0.6 µg/mL (≈ 1.66 µM) | ≥ 10 µg/mL | 9 µg/mL (≈ 24.9 µM)
CCC(CC)OC(=O)c1cc(NC(=S)c2ccccc2N)ccc1Cl [Compound 67] | ≥ 10 µg/mL | 5.5 µg/mL (≈ 14.6 µM) | 29 µg/mL (≈ 76.9 µM) | 0.75 µg/mL (≈ 1.99 µM) | > 10 µg/mL | ≥ 10 µg/mL
COc1ccccc1C(=O)Nc1ccc(Cl)c(C(=O)OC2CCCC2)c1 [Compound 68] | 5 µg/mL (≈ 13.4 µM) | 5.5 µg/mL (≈ 14.7 µM) | > 100 µg/mL | 0.45 µg/mL (≈ 1.2 µM) | 8.5 µg/mL (≈ 22.7 µM) | 8.5 µg/mL (≈ 22.7 µM)
